Measured values taken from patent publication US12421216B2, “Voruciclib polymorphs and methods of making and using thereof” (MEI PHARMA, INC., priority 2019, dated 2025).
Entries after “also recorded” stand apart in the source; their conditions may differ. Where a name gives a salt, the structure may show the parent alone. Read-outs that look alike come from different tables or passages of the source.

Columns and labels:
[1] = Dynamic Vapor Sorption (DVS) hygroscopicity; format: physicochemical; conditions: for Water uptake: 25° C./80% RH; for Hygroscopicity classification: European Pharmacopoeia classification, water uptake at 25° C./80% RH; for Solid form recovered after DVS analysis: XRPD after sorption-desorption-sorption cycle
Method: (§1) Differences in hygroscopicity (moisture uptake) of the various forms of a solid material provided a measure of their relative stability at increasing relative humidity. Moisture sorption isotherms of small samples were obtained using a DVS-1 system from Surface Measurement Systems (London, UK); this instrument is suitable for use with a few milligrams of sample, with an accuracy of 0.1 μg. The relative humidity was varied during sorption-desorption-sorption (45-95-0-45% RH) at a constant temperature of 25° C. Weight equilibration per step was set at dm/dt <0.0002 for a minimum of 1 hour or maximum of 6 hours. Afterwards the sample was measured by HT-XRPD.
The hygroscopicity was classified according to the European Pharmacopoeia Hygroscopicity classification.
as §1, with “(40-95-0-40%” for “(45-95-0-45%”
as §1, with “use with as little as a few” for “use with a few”
The hygroscopicity of Mao1 was determined by DVS. The powder was exposed to a RH profile consisting of sorption/desorption/sorption cycles (40-95-0-40% RH) performed at 25° C. The water vapor uptake gained during the sorption half-cycle was 0.75%.

[2] = Physical stability upon exposure to accelerated aging conditions (AAC, 40° C./75% RH), re-analysis by HT-XRPD; format: physicochemical; conditions: for Physical stability upon exposure to AAC: HT-XRPD before and after; for Stable during AAC: salt screen solids
[3] = dog, in vivo
Method: Each salt form was formulated into tablets with identical formulations. 9 dogs were divided into three group of 3 dogs/group. Each group received one of the following different pre-treatments: • 1. No pretreatment (natural gastric pH—could be acidic or alkaline) • 2. Famotidine (causes alkaline gastric pH) • 3. Pentagastrin (causes acidic gastric pH) The study used a crossover design. Each group of dogs first received pretreatment and was dosed with the Voruciclib HCl salt. After a washout period, the same group of dogs received the same pretreatment and was dosed with the Voruciclib malonate salt. The results were then analyzed for variability. […]
Clinical observations were recorded at least once daily, approximately 1 hour post-Voruciclib dose on dosing days. Body weight measurements were recorded for randomization, prior to dose administration (Day 1 and 8), and on the last day of the washout period following Phase 1 (Day 7). […]
Pharmacokinetic Analysis: Pharmacokinetic (PK) analyses were performed on the individual plasma concentration versus time data for Voruciclib using Phoenix WinNonlin non-compartmental analysis. To evaluate drug absorption, the PK parameter C max (maximum plasma concentration) was measured.
For each dog, the actual administered dose of voruciclib free base was calculated on a mg/kg basis, using the dog body weight data. […]

[4] = Quantitative solubility determination of voruciclib malonate after the thermocycling experiments (UPLC); format: physicochemical
Method: Moreover, after the thermocycling experiments, an aliquot of the mother liquor was taken and analyzed by UPLC to determine the API solubility. After that, the solutions were evaporated under vacuum (5 mbar) and the dry solids were analyzed by HT-XRPD. The solids were then exposed to accelerated aging conditions (2 days at 40° C./75% RH) followed by HT-XRPD re-analysis. Suspensions of amorphous voruciclib malonate salt were prepared in 24 solvents. After the temperature profile, an aliquot of mother liquor was taken, filtered and analyzed by UPLC to determine the API solubility. A small aliquot of mother liquor was taken and filtered using 0.2 μM PTFE syringe filters. The concentration of solute was determined by UPLC analysis. After that, the solutions were evaporated under vacuum (5 mbar) and the dry solids were analyzed by HT-XRPD. The solids were then exposed to accelerated aging conditions (2 days at 40° C./75% RH) followed by HT-XRPD re-analysis.

SMILES: CN1CC[C@@H](c2c(O)cc(O)c3c(=O)cc(-c4ccc(C(F)(F)F)cc4Cl)oc23)[C@@H]1CO.O=C(O)CC(=O)O [Mao1]
- Water uptake gained during the first sorption half-cycle ([1]; DVS, 25° C., 40 to 95% RH): 0.75%
- Water uptake ([1]; DVS): 0.15%
- Hygroscopicity classification [1]: non-hygroscopic
- Solid form recovered after DVS analysis [1]: No solid form conversion was observed
- Physical stability upon exposure to AAC ([2]; 40° C./75% RH, 2 days): physically stable upon exposure to AAC; also recorded: physically stable upon exposure to stress conditions
- Physically stable ([2]; malonate salt forms, exposure to AAC 40° C./75% RH, 2 days): Yes
- Solid forms: Ambient-dried solid (AAC) ([2]; malonate salt thermocycling experiments, label = form of the ambient-dried solid before AAC, 40° C./75% RH, 2 days, HT-XRPD): Mao1
- Solid forms: Evap. ML (AAC) ([2]; malonate salt thermocycling experiments, label = form of the solid from the evaporated mother liquor before AAC, 40° C./75% RH, 2 days, HT-XRPD): Mao1
- Solid forms: Vacuum-dried solids (AAC) ([2]; malonate salt thermocycling experiments, label = form of the vacuum-dried solid before AAC, 40° C./75% RH, 2 days, HT-XRPD): Mao1
- Stable during AAC ([2]; 40° C./75% RH, 2 days): Yes
- Liquid phase AAC (XRPD form after accelerated aging) ([2]; solids from evaporated mother liquors of the salt screen, 40° C./75% RH for 2 days, HT-XRPD): Mao1

SMILES: CN1CC[C@H](c2c(O)cc(O)c3c(=O)cc(-c4ccc(C(F)(F)F)cc4Cl)oc23)[C@H]1CO (stereo in doubt) [voruciclib malonate, 2-(2-chloro-4-(trifluoromethyl)phenyl)-5,7-dihydroxy-8-((2S,3R)-2-(hydroxymethyl)-1-methylpyrrolidin-3-yl)-4H-chromen-4-one malonate salt]
- Variability of absorption [3]: lower than the hydrochloride salt
- solubility ([4]; 1,2-dimethoxyethane, organic solvent or mixture, thermodynamic from solid, 1,2-Dimethoxyethane, read-out: Solubility): 2.3 mg/mL
- solubility ([4]; 1,4-dioxane, organic solvent or mixture, thermodynamic from solid, 1,4-Dioxane, read-out: Solubility): 0.9 mg/mL
- solubility ([4]; 2-propanol, organic solvent or mixture, thermodynamic from solid, 2-Propanol, read-out: Solubility): 5.1 mg/mL
- solubility ([4]; 2-propanol/water (90/10), organic solvent or mixture, thermodynamic from solid, 2-Propanol/water (90/10), read-out: Solubility): 130 mg/mL
- solubility ([4]; IPA, acetone, AcN, MEK and 1,2-dimethoxyethane, organic solvent or mixture, thermodynamic from solid, IPA, acetone, AcN, MEK and 1,2-dimethoxyethane, read-out: Solubility classification): 1 to 10 mg/mL
- solubility ([4]; THF, water and EtOH, water, thermodynamic from solid, THF, water and EtOH, read-out: Solubility classification): 10 to 33 mg/mL
- solubility ([4]; acetone, organic solvent or mixture, thermodynamic from solid, Acetone, read-out: Solubility): 5 mg/mL
- solubility ([4]; acetone/water (90/10), organic solvent or mixture, thermodynamic from solid, Acetone/water (90/10), read-out: Solubility): 245 mg/mL
- solubility ([4]; acetone/water (90/10, v/v) and IPA/water (90/10, v/v), organic solvent or mixture, thermodynamic from solid, acetone/water (90/10, v/v) and IPA/water (90/10, v/v), read-out: Solubility classification): 100 to 1000 mg/mL
- solubility ([4]; acetonitrile, organic solvent or mixture, thermodynamic from solid, Acetonitrile, read-out: Solubility): 3 mg/mL
- solubility ([4]; anisole, organic solvent or mixture, thermodynamic from solid, Anisole, read-out: Solubility): < 0.04 mg/mL
- solubility ([4]; chloroform, organic solvent or mixture, thermodynamic from solid, Chloroform, read-out: Solubility): 0.5 mg/mL
- solubility ([4]; cyclohexane, organic solvent or mixture, thermodynamic from solid, Cyclohexane, read-out: Solubility): < 0.07 mg/mL
- solubility ([4]; dichloromethane, organic solvent or mixture, thermodynamic from solid, Dichloromethane, read-out: Solubility): 0.3 mg/mL
- solubility ([4]; diethyl ether, organic solvent or mixture, thermodynamic from solid, Diethyl ether, read-out: Solubility): < 0.04 mg/mL
- solubility ([4]; ethanol, organic solvent or mixture, thermodynamic from solid, Ethanol, read-out: Solubility): 13.6 mg/mL
- solubility ([4]; ethyl acetate, organic solvent or mixture, thermodynamic from solid, Ethyl acetate, read-out: Solubility): 0.3 mg/mL
- solubility ([4]; ethyl formate, organic solvent or mixture, thermodynamic from solid, Ethyl formate, read-out: Solubility): 0.4 mg/mL
- solubility ([4]; isopropyl acetate, organic solvent or mixture, thermodynamic from solid, Isopropyl acetate, read-out: Solubility): 0.1 mg/mL
- solubility ([4]; methanol, organic solvent or mixture, thermodynamic from solid, Methanol, read-out: Solubility): 65.7 mg/mL
- solubility ([4]; methanol, organic solvent or mixture, thermodynamic from solid, methanol, read-out: Solubility classification): 33 to 100 mg/mL
- solubility ([4]; methyl ethyl ketone, organic solvent or mixture, thermodynamic from solid, Methyl ethyl ketone, read-out: Solubility): 2.9 mg/mL
- solubility ([4]; n-heptane, organic solvent or mixture, thermodynamic from solid, n-Heptane, read-out: Solubility): < 0.06 mg/mL
- solubility ([4]; organic solvent or mixture, thermodynamic from solid, 1,4-dioxane, chloroform, ethyl formate, DCM, ethyl acetate and isopropyl acetate, read-out: Solubility classification): 0.1 to 1 mg/mL
- solubility ([4]; organic solvent or mixture, thermodynamic from solid, toluene, anisole, MTBE, diethyl ether, pentane, cyclohexane and n-heptane, read-out: Solubility classification): < 0.1 mg/mL
- solubility ([4]; pentane, organic solvent or mixture, thermodynamic from solid, Pentane, read-out: Solubility): < 0.05 mg/mL
- solubility ([4]; tert-butyl methyl ether, organic solvent or mixture, thermodynamic from solid, tert-Butyl methyl ether, read-out: Solubility): < 0.04 mg/mL
- solubility ([4]; tetrahydrofuran, organic solvent or mixture, thermodynamic from solid, Tetrahydrofuran, read-out: Solubility): 14.2 mg/mL
- solubility ([4]; toluene, organic solvent or mixture, thermodynamic from solid, Toluene, read-out: Solubility): < 0.04 mg/mL
- solubility ([4]; water, thermodynamic from solid, Water, read-out: Solubility): 13.6 mg/mL

SMILES: CN1CCC(c2c(O)cc(O)c3c(=O)cc(-c4ccc(C(F)(F)F)cc4Cl)oc23)C1CO.O=P(O)(O)O (stereo not shown) [Pho1]
- Water uptake ([1]; DVS): approximately 5.0%
- Hygroscopicity classification [1]: moderately hygroscopic
- Solid form recovered after DVS analysis [1]: Pho1 was recovered
- Stability against variable humidity conditions ([1]; between 0-95% RH): stable against variable humidity conditions
- Physical stability upon exposure to AAC ([2]; 40° C./75% RH, 2 days): the only stable from when exposed to advance aging conditions; also recorded: physically stable under AAC for 2 days; also recorded: physically stable upon exposure to AAC for two days; also recorded: remained stable
- Solid phase AAC (XRPD form after accelerated aging) ([2]; precipitated solids of the salt screen, dried under vacuum at 50° C., 40° C./75% RH for 2 days, HT-XRPD): Pho1
- Stable during AAC ([2]; 40° C./75% RH, 2 days): Yes
